Experimental findings from paper PMC12204359, “Mechanistic Design of Cell-Penetrating Disruptors for a Phospho-Dependent Interaction” (Research Square, 2025) are described below.

Residue numbers refer to the chain shown, from its start. Positions of bridges follow the written chain, without caps; N, C: chain ends. Non-standard residues stand in square brackets, D forms with d. Residues, ends and D or L forms follow the SMILES beside them. *: point of attachment. 5FAM = O=C1OC2(c3ccc(O)cc3Oc3cc(O)ccc32)c2ccc(C(=O)*)cc21; 6FAM = O=C1OC2(c3ccc(O)cc3Oc3cc(O)ccc32)c2cc(C(=O)*)ccc21; S5 = C=CCCC[C@](C)(N)C(=O)O

For assay [1], the target named is T1, CHC^ankle (clathrin heavy chain aa 358–574) (Homo sapiens, UniProt Q00610).
T1 construct: we used the minimal ankle region of CHC (CHC^ankle, aa 358–574); GST (TEV-cleavable); made in house
T1 sequence (Q00610 358-574): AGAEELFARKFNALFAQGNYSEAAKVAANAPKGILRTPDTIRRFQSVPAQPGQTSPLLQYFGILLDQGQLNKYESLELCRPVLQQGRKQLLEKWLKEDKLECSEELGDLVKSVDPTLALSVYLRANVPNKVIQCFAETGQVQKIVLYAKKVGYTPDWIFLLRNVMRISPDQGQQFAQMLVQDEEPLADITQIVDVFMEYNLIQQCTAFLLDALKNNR
Briefly: Fluorescence polarisation direct binding assay, CHC ankle WT. The protocol: (§1) Binding affinity of CHC and TACC3 peptides was calculated based on fluorescence polarization assays performed as reported previously, using linear and stapled FAM-TACC3 peptides corresponding to aa 549–570 of human TACC3 protein. Linear peptides were purchased from PPR (Fareham, UK); Alta Bioscience (Redditch, UK); Biomatik Corporation (Ontario, Canada). Stock solutions of peptides were 10 mM in DMSO. Binding assays were performed in triplicate in the binding buffer 20 mM HEPES pH 7.5, 150 mM NaCl, 5 mM DTT, 0.05% Tween-20. Data analysis was performed using a one-site specific binding model in Prism (GraphPad software, v10.1.0).

In assay [2] the target is T2, biotinylated Avi-tagged ankle region of clathrin (aa 358–574) (Homo sapiens, UniProt Q00610).
T2 construct: The biotinylated Avi-tagged ankle region of clathrin (aa 358–574) was immobilised; made in house
T2 sequence (Q00610 358-574 limits assumed): T1 sequence (Q00610 358-574)
In words: SPR binding kinetics. The conditions noted are these: Biacore 1K+, average ± SD of duplicates; for kon: CHC aa 358–574 on SA chip, 60 s injection, read-out: ka (SPR). The protocol: The SPR assays were performed using a Biacore 1K+ instrument (Cytiva Life Sciences). The biotinylated Avi-tagged ankle region of clathrin (aa 358–574) was immobilised on the surface of a Streptavidin SA chip (Cytiva Life Sciences) to the density of 150 RU. The increasing concentrations of peptide analytes were diluted in the running buffer (20 mM HEPES pH 7.5, 150 mM NaCl, 5 mM DTT, 0.05% Tween-20) and injected at a flow rate of 30 μL/min). […] Each concentration was injected at 30 μL/min for 60 s. […] The Biacore evaluation software was used to calculate equilibrium KD values as well as ka and kd constants using 1:1 steady-state affinity model implemented into the BIAevaluation 3.0 software.
In general terms: SPR reads the build-up and loss of mass on a sensor chip optically.

Assay [3] has as its system HeLa cells. Briefly: Confocal microscopy of fixed HeLa cells (peptide localisation, endogenous TACC3 and CHC on mitotic spindle). It is filed as cell-based. The protocol:
HeLa cells grown on glass coverslips in complete growth medium and treated with 2.5, 5 and 10 μM FAM-peptides for 5 h. Cells were washed with PBS and fixed with PTEMF (20 mM PIPES, pH 6.8, 10 mM EGTA, 1 mM MgCl2, 0.2% Triton X-100 and 4% paraformaldehyde) for 10 min and permeabilized at room temperature in 0.5% Triton-X100 in PBS for 10 min. Cells were blocked in 3% BSA in PBS for 1 h and incubated overnight with primary antibodies diluted in 3% BSA/PBS buffer followed by 1 h incubation with secondary antibodies. Primary antibodies were as follows: mouse anti-CHC (X22; GTX22731; 1:250), rabbit anti-TACC3 (ab134154, Abcam; 1:500). Secondary antibodies were anti-mouse IgG Atto 594 (1:250, 76085, Merck) and anti-rabbit IgG Atto 647N antibody (1:250, 40839, Merck). Coverslips were mounted with ProLong Gold antifade reagent with DAPI (Invitrogen). Peptides were imaged using their 6-FAM fluorescent tag with a 488 nm argon laser. Imaging was performed on a Zeiss LSM880 upright confocal microscope using a 40x/1.4 NA oil objective. Z-stacks comprising of 9–13 × 1 μm sections were acquired. Images were captured using identical settings. The region of interest (~0.6 μm^2) was quantified in three different locations over the spindle, cytoplasm and in the non-cell region of background. Images were analysed using Fiji (v.2.9.0).

Assay [4] has as its system HeLa cells. The note with it: live HeLa cells, SiR-tubulin, 5 μM peptide, 4 h pre-incubation, imaged 10 h every 5 min; 246–297 mitotic events over 3 imaging sessions.
Protocol: HeLa, MDA-MB-468 and MDA-MB-231 cells were plated in a 35 mm imaging dish (Ibidi) in complete growth medium. Prior to imaging, the DMEM or RPMI growth medium was replaced with Optimem medium (Gibco) supplemented with 10% FBS. Added to the medium was SiR-tubulin (Spirochrome) at 30 nM concentration, SPY555-DNA at 1:18000 dilution; both live-cell imaging probes were used at lower than recommended concentrations to avoid possible effects on mitosis. […] The Lattice Lightsheet 7 microscope was fitted with a 10x/0.4NA water immersion illumination lens, a 48x/1.0NA detection lens and a PCO.edge 4.2 sCMOS camera. Each field of view of approximately 500 μm × 297 μm × 33 μm was imaged at 0.2 μm lightsheet interval with the 640 nm channel (15 ms exposure, 15% laser power) and 561 nm channel (15 ms exposure, 10% laser power) over a 10 h period with scans taken every 5 min. To create movies and frame sequences the cell were imaged every 2.5 min for 5 h. Results were processed using Zeiss LLS software and Fiji (v.2.9.0).
The target in assay [5] is T3, K507A-CHC^ankle (Homo sapiens, UniProt Q00610, K507A).
T3 construct: we used the minimal ankle region of CHC (CHC^ankle, aa 358–574); GST (TEV-cleavable); made in house
T3 sequence (Q00610 358-574 K507A): T1 sequence (Q00610 358-574) with K150A
Briefly: Fluorescence polarisation direct binding assay, K507A-CHC ankle. The conditions noted are these: direct binding FP, FAM labelled peptides; CHC with K507A substitution; mean of three experiments ± SD; read-out: KD, stapled and control peptides, CHC K507A.
Excerpt: CHC constructs for binding studies were produced during previous work by cloning the respective CHC coding sequence of Q00610 (CLH1_HUMAN) aa 1–574 and 358–574, respectively) into a modified pGEX vector containing a TEV-cleavable GST tag[26]. Point mutations K506A and K507A were introduced by site-directed mutagenesis. GB1-TACC3 is the small protein GB1[47] fused to a short, disordered peptide sequence from human TACC3 (Q9Y6A5, aa 545–573). This hybrid sequence was cloned into a pETM6T1 vector which contains a TEV protease-cleavable N-terminal His-NusA tag.
as §1
Background: Fluorescence polarisation rises when a labelled molecule tumbles more slowly, as on binding a larger partner.

As for `CC(C)C[C@H](NC(=O)[C@H](C)NC(=O)[C@H](CO)NC(=O)[C@H](CCC(=O)O)NC(=O)[C@H](CCCCN)NC(=O)c1ccc2c(c1)C(=O)OC21c2ccc(O)cc2Oc2cc(O)ccc21)C(=O)N[C@@H](CCCNC(=N)N)C(=O)N[C@@H](CCCCN)C(=O)N[C@@]1(C)CCCC=CCCC[C@@](C)(C(=O)N[C@@H](CCC(=O)O)C(=O)N[C@@H](Cc2ccccc2)C(=O)N[C@@H](CC(=O)O)C(=O)N2CCC[C@H]2C(=O)N[C@@H](CC(C)C)C(=O)N[C@@H](Cc2ccccc2)C(=O)N[C@@H](CCCNC(=N)N)C(=O)N[C@@H](CC(=O)O)C(=O)N[C@@H](CO)C(N)=O)NC(=O)[C@H](CC(C)C)NC(=O)[C@H](CC(C)C)NC(=O)[C@H](CCC(=O)O)NC1=O` [Opt SP TACC3] (5FAM-KESALRK[S5]ELL[S5]EFDPLFRDS-NH2; staple 8-12), the “fold increase in binding affinity for CHC compared to WT / parental TACC3 sequence” value in assay [1] (compared to the WT (parental) TACC3 peptide) is “over a hundred-fold higher affinity”. Also, in assay [2], the kon came out at 1.8e+06 M⁻¹ s⁻¹. In addition, the “colocalisation with endogenous TACC3 on the mitotic spindle” value in assay [3] (fixed mitotic HeLa cells, FAM-labelled peptides, confocal microscopy) was “colocalised with endogenous TACC3 on the mitotic spindle”. Also, the “reduction of endogenous TACC3 levels in the mitotic spindle” value in assay [3] (metaphase HeLa cells, peptide 2.5, 5 and 10 μM, 5 h, compared to the negative control SP TACC3 peptide) was ~ 20%.
Take `CC(C)C[C@H](NC(=O)[C@H](C)NC(=O)[C@@H]1CCCN1C(=O)[C@H](CC(=O)O)NC(=O)[C@H](C)NC(=O)[C@H](CCC(=O)O)NC(=O)[C@]1(C)CCCC=CCCC[C@](C)(NC(=O)[C@H](CCCCN)NC(=O)[C@H](CCCNC(=N)N)NC(=O)[C@H](CC(C)C)NC(=O)[C@H](C)NC(=O)[C@H](CO)NC(=O)[C@H](CCC(=O)O)NC(=O)[C@H](CCCCN)NC(=O)c2ccc3c(c2)C2(OC3=O)c3ccc(O)cc3Oc3cc(O)ccc32)C(=O)N[C@@H](CCC(=O)O)C(=O)N[C@@H](CC(C)C)C(=O)N[C@@H](CC(C)C)C(=O)N1)C(=O)N[C@@H](CCCNC(=N)N)C(=O)N[C@@H](CC(=O)O)C(=O)N[C@@H](CO)C(N)=O` [Neg. control SP TACC3] (6FAM-KESALRK[S5]ELL[S5]EADPALRDS-NH2; staple 8-12): the “median duration of mitosis from NEBD to anaphase onset” value in assay [4] was found to be 55 min.
As a reminder, the Kd is the equilibrium constant for the complex coming apart. With `CC(C)C[C@H](NC(=O)[C@H](C)NC(=O)[C@H](CO)NC(=O)[C@H](CCC(=O)O)NC(=O)[C@H](CCCCN)NC(=O)[C@H](Cc1ccccc1)NC(=O)c1ccc2c(c1)C(=O)OC21c2ccc(O)cc2Oc2cc(O)ccc21)C(=O)N[C@@H](CCCNC(=N)N)C(=O)N[C@@H](CCCCN)C(=O)N[C@@]1(C)CCCC=CCCC[C@@](C)(C(=O)N[C@@H](CCCCN)C(=O)N[C@@H](Cc2ccccc2)C(=O)N[C@@H](CC(=O)O)C(=O)N2CCC[C@H]2C(=O)N[C@@H](CC(C)C)C(=O)N[C@@H](CC(C)C)C(=O)N[C@@H](CCCNC(=N)N)C(=O)N[C@@H](CC(=O)O)C(=O)N[C@@H](CO)C(N)=O)NC(=O)[C@H](Cc2ccc(O)cc2)NC(=O)[C@H](CC(C)C)NC(=O)[C@H](CCC(=O)O)NC1=O` [SP4E] (5FAM-FKESALRK[S5]ELY[S5]KFDPLLRDS-NH2; staple 9-13), the Kd was determined as 34 ± 5 µM in assay [1] (direct binding FP, FAM labelled peptides, CHC WT (385–574), mean of three experiments ± SD, read-out: KD, stapled and control peptides, CHC WT); 3.7 ± 1 µM in assay [5]; 2.8 ± 0.2 µM in assay [2] (CHC aa 358–574 on SA chip 150 RU, 20 mM HEPES pH 7.5, 150 mM NaCl, 5 mM DTT, 0.05% Tween-20, 30 μL/min). The kon in assay [2] was determined as 140000 M⁻¹ s⁻¹.
